# Assay results reported in patent publication US6090945A, “Tetrahydro-beta-carbolines” (Eli Lilly and Company, priority 1998, dated 2000).
# Where a name gives a salt, the structure may show the parent alone. Read-outs that look alike come from different tables or passages of the source.
# Legend:
# 5-HT2 receptor = 5-HT2 receptor (Rattus norvegicus, UniProt P14842); test: 5-HT2 radioligand binding assay ([3H]ketanserin displacement); set-up: species or system rat (Sprague-Dawley cerebral cortex)
# Chain of 5-HT2 receptor (P14842 whole entry): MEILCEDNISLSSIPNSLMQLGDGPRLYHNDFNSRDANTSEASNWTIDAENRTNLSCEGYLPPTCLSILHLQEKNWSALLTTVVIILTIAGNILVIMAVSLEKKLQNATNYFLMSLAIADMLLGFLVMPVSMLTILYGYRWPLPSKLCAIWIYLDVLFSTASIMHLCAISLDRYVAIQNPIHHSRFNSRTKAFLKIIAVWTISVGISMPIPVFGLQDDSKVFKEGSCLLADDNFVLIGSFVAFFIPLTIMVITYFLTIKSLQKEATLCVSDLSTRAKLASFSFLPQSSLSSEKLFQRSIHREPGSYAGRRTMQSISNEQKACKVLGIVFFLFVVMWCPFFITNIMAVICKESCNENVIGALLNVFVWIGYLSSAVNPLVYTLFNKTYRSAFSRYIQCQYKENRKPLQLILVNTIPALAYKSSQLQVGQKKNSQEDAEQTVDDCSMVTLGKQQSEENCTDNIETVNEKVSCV
# 5-HT1c receptor [1] = molecular target: T1, 5-HT1c receptor (Bos taurus, UniProt A0AAA9SBU1); test: 5-HT1c radioligand binding assay ([3H]mesulergine displacement); conditions: read-out: 5HT1C IC50 (binding displacement); choroid plexus; tritiated mesulergine 2.0 nM; 37° C., 15 minutes
# T1 sequence (A0AAA9SBU1 33-457): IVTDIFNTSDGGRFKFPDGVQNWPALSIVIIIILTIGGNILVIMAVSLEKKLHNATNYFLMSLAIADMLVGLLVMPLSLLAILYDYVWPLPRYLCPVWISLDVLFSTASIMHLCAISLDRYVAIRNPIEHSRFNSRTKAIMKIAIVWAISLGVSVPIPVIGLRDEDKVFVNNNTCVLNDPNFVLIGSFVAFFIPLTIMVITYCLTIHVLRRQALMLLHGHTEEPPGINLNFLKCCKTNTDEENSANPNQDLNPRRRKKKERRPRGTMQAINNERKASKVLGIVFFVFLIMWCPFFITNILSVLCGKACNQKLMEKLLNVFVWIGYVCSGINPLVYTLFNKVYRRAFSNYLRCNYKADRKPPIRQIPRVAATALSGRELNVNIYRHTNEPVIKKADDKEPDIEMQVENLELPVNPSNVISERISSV
# Method: I. Assay for 5-HT1c Affinity
# (§1) Beef brain was removed immediately after slaughter, and choroid plexus were dissected over ice. […] Tissues were homogenized in 9 volumes of 0.32 mol/L sucrose and centrifuged at 1,000×g for 10 minutes. The supernatant was centrifuged at 17,000×g for 20 minutes. The pellet was suspended in 100 volumes of 50 mM Tris-HCl (pH7.4), incubated at 37° C. for 10 minutes and centrifuged at 50,000×g for 10 minutes, and the process was repeated three times. The final pellets were frozen at -70° C. and used within 2 weeks. Pellets were rehydrated with physiological buffer prior to use.
# (§2) The reactions were terminated by rapid filtration, (Brandel Cell Harvestor), through Whatman GF/B glass filters that had been presoaked in Tris buffer pH 7.4. The filters were then washed 2 times with 5 ml of ice cold Tris buffer pH 7.4. Washed filters were placed in scintillation vials and 10 ml RedySolv, (Brandel), was added and samples were counted in a Searle D-300 beta counter. Means and standard error statistics were calculated for triplicate experimental determinations in certain cases. Mean values were obtained from three or more separate determinations. The incubation time for the reaction mixture was 15 minutes at 37° C.
# 5-HT1c receptor [2] = test: as above; conditions: versus 5-HT2, as shown by Table II
# Method: I. Assay for 5-HT1c Affinity
# as §1, §2
# [3] = rat cerebral cortex, tritiated ketanserin 1 nM, 37° C., read-out: 5HT2 IC50 (binding displacement)
SMILES,IC50 (5-HT2 receptor) [nM],IC50 (5-HT1c receptor [1]) [nM],"5-HT1c selectivity (low IC50 in 5-HT1c assay, higher IC50 in 5-HT2 assay) (5-HT1c receptor [2])",IC50 (5-HT2 receptor; [3]) [nM]
"COc1ccc(CC2NCCc3c2[nH]c2c(Br)cc(C)cc32)cc1OC.Cl (stereo not shown) [Example 4, 6-methyl-8-bromo-1-[(3,4-dimethoxyphenyl)-methyl]-1,2,3,4-tetrahydro-9H-pyrido[3,4-b]indole hydrochloride]",132,20,particularly 5-HT1c selective,
"COc1ccc(CC2NCCc3c2[nH]c2c(C)cccc32)cc1OC (stereo not shown) [Example 1, 8-methyl-1-[(3,4-dimethoxyphenyl)methyl]-1,2,3,4-tetrahydro-9H-pyrido[3,4-b]indole]",,213,,310
"COc1ccc(CC2NCCc3c2[nH]c2ccc(C)cc32)cc1F (stereo not shown) [Example 34, 6-methyl-1-[(3-fluoro-4-methoxyphenyl)-methyl]-1,2,3,4-tetrahydro-9H-pyrido[3,4-b]indole hydrochloride]",250,95,,
"COc1ccc(CC2NCCc3c2[nH]c2c(F)cc(F)cc32)cc1OC (stereo not shown) [Example 6, 6,8-difluoro-1-[(3,4-dimethoxyphenyl)-methyl]-1,2,3,4-tetrahydro-9H-pyrido[3,4-b]indole]",,43,particularly 5-HT1c selective,168
"COc1ccc(CC2NCCc3c2[nH]c2c(C)c(C)ccc32)cc1OC (stereo not shown) [Example 19, 7,8-dimethyl-1,2,3,4-tetrahydro-1-[(3,4-dimethoxyphenyl)methyl]-9H-pyrido[3,4b]indole hydrochloride]",,21,,> 100
"COc1ccc(CC2NCCc3c2[nH]c2ccc(C)cc32)c(Cl)c1OC (stereo not shown) [Example 36, 6-methyl-1-[(2-chloro-3,4-dimethoxyphenyl)-methyl]-1,2,3,4-tetrahydro-9H-pyrido[3,4-b]indole hydrochloride]",100,57,,
"COc1ccc(OC)c(CC2NCCc3c2[nH]c2ccc(C)cc32)c1 (stereo not shown) [Example 25, 6-methyl-1-[(2,5-dimethoxyphenyl)methyl]-1,2,3,4-tetrahydro-9H-pyrido[3,4-b]indole hydrochloride]",,79,,
"COc1cc(CC2NCCc3c2[nH]c2ccc(C)cc32)cc(N)c1OC (stereo not shown) [Example 30, 6-methyl-1-[(3,4-dimethoxy-5-amino-phenyl)-methyl]-1,2,3,4-tetrahydro-9H-pyrido[3,4-b]indole dihydrochloride]",792,224,,
"CCc1ccc2[nH]c3c(c2c1)CCN[C@H]3[C@H](C)c1ccc(OC)c(OC)c1 (relative stereo) [Example 42, (±) 6-ethyl-1-[(3,4-dimethoxyphenyl)-1-ethyl]-1,2,3,4-tetrahydro-9H-pyrido[3,4-b]indole (Z)-2-butenedioate]",,86,,211
"COc1ccc(CC2NCCc3c2[nH]c2c(C)cc(C)cc32)cc1OC (stereo not shown) [Example 14, 6,8-dimethyl-1,2,3,4-tetrahydro-1-[(3,4-dimethoxyphenyl)methyl]-9H-pyrido[3,4b]indole hydrochloride]",,34,,> 100
"COc1ccc(CC2c3[nH]c4ccc(C(C)C)cc4c3CCN2C)cc1OC (stereo not shown) [Example 45, 2-methyl-6-(1-methylethyl)-1,2,3,4-tetrahydro-1-[(3,4-dimethoxyphenyl)methyl]-9H-pyrido-[3,4b]indole maleate]",,452,,
"COc1ccc(CC2NCCc3c2[nH]c2c(OC)cccc32)cc1OC (stereo not shown) [Example 5, 8-methoxy-1-[(3,4-dimethoxyphenyl)methyl]-1,2,3,4-tetrahydro-9H-pyrido[3,4-]indole]",,237,,255
"COc1ccc(CC2NCCc3c2[nH]c2ccc(C)c(F)c32)c(Cl)c1OC (stereo not shown) [Example 38, 5-fluoro-6-methyl-1-[(2-chloro-3,4-dimethoxyphenyl)methyl]-1,2,3,4-tetrahydro-9H-pyrido[3,4-b]indole hydrochloride]",> 100,11,,
"CCc1ccc2[nH]c3c(c2c1)CCNC3Cc1ccc(OC)c(OC)c1 (stereo not shown) [Example 17, 6-ethyl-1,2,3,4-tetrahydro-1-[(3,4-dimethoxyphenyl)methyl]-9H-pyrido[3,4b]indole]",,73,,286
"COc1cc(CC2NCCc3c2[nH]c2ccc(C)cc32)cc([N+](=O)[O-])c1OC (stereo not shown) [Example 28, 6-methyl-1-[(3,4-dimethoxy-5-nitrophenyl)-methyl]-1,2,3,4-tetrahydro-9H-pyrido[3,4-b]indole hydrochloride]",1000,404,,
"COc1ccc(CC2c3[nH]c4ccc(C)cc4c3CCN2C)c(Cl)c1OC (stereo not shown) [Example 44, 2,6-dimethyl-1-[(2-chloro-3,4-dimethoxyphenyl)methyl]-1,2,3,4-tetrahydro-9H-pyrido[3,4-b]indole hydrochloride]",,386,,

SMILES,IC50 (5-HT2 receptor) [nM],IC50 (5-HT1c receptor [1]) [nM],"5-HT1c selectivity (low IC50 in 5-HT1c assay, higher IC50 in 5-HT2 assay) (5-HT1c receptor [2])",IC50 (5-HT2 receptor; [3]) [nM]
"COc1ccc(CC2NCCc3c2[nH]c2ccc(C(C)(C)C)cc32)cc1OC (stereo not shown) [Example 8, 6-(1,1-dimethylethyl)-1-[(3,4-dimethoxyphenyl)methyl]1,2,3,4-tetrahydro-1-9H-pyrido-[3,4b]indole hydrochloride]",,22,,> 100
"COc1ccc(CC2NCCc3c2[nH]c2c(Br)cccc32)cc1OC (stereo not shown) [Example 2, 8-bromo-1-[(3,4-dimethoxyphenyl)methyl]-1,2,3,4-tetrahydro-9H-pyrido[3,4-b]indole hydrochloride]",67,34,,
"COc1cc(OC)c(OC)cc1CC1NCCc2c1[nH]c1ccc(C)cc21 (stereo not shown) [Example 26, 6-methyl-1-[(2,4,5-trimethoxyphenyl)-methyl]-1,2,3,4-tetrahydro-9H-pyrido[3,4-b]indole hydrochloride]",,53,,
"COc1ccc(CC2NCCc3c2[nH]c2ccc(C)cc32)c(OC)c1 (stereo not shown) [Example 24, 6-methyl-1-[(2,4-dimethoxyphenyl)methyl]-1,2,3,4-tetrahydro-9H-pyrido[3,4-b]indole hydrochloride]",74,17,,
"COc1ccc(CC2NCCc3c2[nH]c2ccc(Br)cc32)cc1OC (stereo not shown) [Example 18, 6-bromo-1,2,3,4-tetrahydro-1-[(3,4-dimethoxyphenyl)methyl]-9H-pyrido[3,4b]indole]",,119,,287
"COc1ccccc1CC1NCCc2c1[nH]c1ccc(C)cc21 (stereo not shown) [Example 23, 6-methyl-1-[(2-methoxyphenyl)methyl]-1,2,3,4-tetrahydro-9H-pyrido[3,4-b]indole hydrochloride]",,57,,
"Cc1ccc2[nH]c3c(c2c1)CCNC3Cc1ccc(C)c(C)c1 (stereo not shown) [Example 35, 6-methyl-1-[(3,4-dimethylphenyl)methyl]-1,2,3,4-tetrahydro-9H-pyrido[3,4-b]indole hydrochloride]",> 100,61,,
"COc1ccc(CC2NCCc3c2[nH]c2ccc(C)c(F)c32)cc1OC (stereo not shown) [Example 9, 5-fluoro-6-methyl-1-[(3,4-dimethoxyphenyl)-methyl]-1,2,3,4-tetrahydro-9H-pyrido[3,4-b]indole]",,18,,141
"COc1cc(CC2NCCc3c2[nH]c2ccc(C)cc32)cc(I)c1OC (stereo not shown) [Example 29, 6-methyl-1-[(3-iodo-4,5-dimethoxy-phenyl)-methyl]-1,2,3,4-tetrahydro-9H-pyrido[3,4-b]indole]",,257,,1010
"COc1c(O)ccc(CC2NCCc3c2[nH]c2ccc(C)cc32)c1Cl (stereo not shown) [Example 37, 6-methyl-1-[(2-chloro-3-methoxy-4-hydroxyphenyl)methyl]-1,2,3,4-tetrahydro-9H-pyrido[3,4-b]-indole hydrochloride]",100,29,,
"COc1ccc(CC2NCCc3c2[nH]c2ccc(C4CCCCC4)cc32)cc1OC (stereo not shown) [Example 11, 6-cyclohexyl-1-[(3,4-dimethoxyphenyl)-methyl]-1,2,3,4-tetrahydro-9H-pyrido[3,4-b]indole hydrochloride]",> 1000,365,,
"COc1ccc(CC2NCCc3c2[nH]c2c(C)ccc(C)c32)cc1OC (stereo not shown) [Example 12, 5,8-dimethyl-1,2,3,4-tetrahydro-1-[(3,4-dimethoxyphenyl)methyl]-9H-pyrido[3,4b]indole hydrochloride]",,15,,> 100
"Cc1ccc2[nH]c3c(c2c1)CCNC3CC1CCCCC1 (stereo not shown) [Example 39, 6-methyl-1-(cyclohexylmethyl)-1,2,3,4-tetrahydro-9H-pyrido[3,4-b]indole hydrochloride]",620,498,,
"COc1cc(CC2NCCc3c2[nH]c2ccc(C)cc32)cc(OC)c1OC (stereo not shown) [Example 21, 6-methyl-1-[(3,4,5-trimethoxyphenyl)-methyl]-1,2,3,4-tetrahydro-9H-pyrido[3,4-b]indole hydrochloride]",1080,83,,
"CCCOc1ccc(CC2NCCc3c2[nH]c2ccc(C)cc32)cc1OC (stereo not shown) [Example 31, 6-methyl-1-[(3-methoxy-4-propoxyphenyl)-methyl]-1,2,3,4-tetrahydro-9H-pyrido[3,4-b]indole]",,107,,385
"COc1ccc(CC2NCCc3c2[nH]c2ccc(C)cc32)cc1OC (stereo not shown) [Example 20, 6-methyl-1,2,3,4-tetrahydro-1-[(3,4-dimethoxyphenyl)methyl]-9H-pyrido[3,4b]indole hydrochloride]",,100,,129
